{"source": "patent US20040138299A1", "about": "“Solid pharmaceutical composition comprising 4-cyano-trifluoro-3(4-fluorophenyl-sulphonyl)-2hydroxy-methylpropiono-m toluidide and pvp” (priority 2001, published 2004)", "origin": "cited, not measured here", "conditions": "conventional tablet doses above 300 mg"}
{"smiles": "CC(O)(CS(=O)(=O)c1ccc(F)cc1)C(=O)Nc1ccc(C#N)c(C(F)(F)F)c1", "note": "(stereo not drawn) [bicalutamide, 4′-cyano-α′,α′,α′-trifluoro-3-(4-fluorophenylsulphonyl)-2-hydroxy-2-methylpropiono-m-toluidide]", "values": [{"measurement": "systemic exposure at high dose", "result": "no further significant increase in systemic exposure"}]}
